From patent US5391571A, “Cholesterol ester hydrolase inhibitors” (priority 1993, dated 1995) come the findings set out here.

The subject of one assay is cholesterol absorption. Briefly: in vivo cholesterol absorption study, serum radioactivity after oral [4-^14C] cholesterol. As to conditions: Rattus norvegicus, 6 h, normal rats, serum radioactivity at six hours, vs control, read-out: Decrease in [^14C] Cholesterol Absorption. How it is done:
The in vivo cholesterol absorption studies were conducted in normal rats by oral administration of the compound being tested in propylene glycol and olive oil followed by oral administration of [4-^14 C] cholesterol in propylene glycol and olive oil, otherwise following the procedure of Cayen et al., J. Lipid Res. 20 162 (1979). The serum radioactivity was measured at six hours after dosing. The results of this study are reported in the following Table, where available, as percent decrease compared to control and in terms of the effective dose (ED50) inhibiting fifty-percent of the absorption of the control animals.

Assay [1] concerns the target T1, cholesterol esterase (EC 3.1.1.13) (Bos taurus, UniProt P30122).
T1 construct: purchased Sigma Chemical Company, St. Louis, Mo., USA C-1892; host or cells: bovine pancreas
Briefly: in vitro inhibition of cholesteryl ester formation by cholesterol esterase. Type of assay: biochemical, bovine. As to conditions: 37° C., cholesterol and oleic acid, cholesterol esterase from bovine pancreas; read-out: IC50 (concentration that inhibits one-half of the ester formation). How it is done:
The ability of the compounds of this invention to inhibit the formation of cholesteryl esters and thereby interfere with and prevent assimilation of cholesterol into the lymphatic system and ultimately the blood stream was established by incubating the compounds at 37° C. with a mixture of cholesterol and oleic acid in the presence of buffered cholesterol esterase [(EC 3.1.1.13) Sigma Chemical Company, St. Louis, Mo., USA, No. C-1892, from bovine pancreas] and measuring the amount of ester formed, according to the procedure of Field, J. of Lipid Research, 25 389 (1984).

T1 sequence (P30122 19-597): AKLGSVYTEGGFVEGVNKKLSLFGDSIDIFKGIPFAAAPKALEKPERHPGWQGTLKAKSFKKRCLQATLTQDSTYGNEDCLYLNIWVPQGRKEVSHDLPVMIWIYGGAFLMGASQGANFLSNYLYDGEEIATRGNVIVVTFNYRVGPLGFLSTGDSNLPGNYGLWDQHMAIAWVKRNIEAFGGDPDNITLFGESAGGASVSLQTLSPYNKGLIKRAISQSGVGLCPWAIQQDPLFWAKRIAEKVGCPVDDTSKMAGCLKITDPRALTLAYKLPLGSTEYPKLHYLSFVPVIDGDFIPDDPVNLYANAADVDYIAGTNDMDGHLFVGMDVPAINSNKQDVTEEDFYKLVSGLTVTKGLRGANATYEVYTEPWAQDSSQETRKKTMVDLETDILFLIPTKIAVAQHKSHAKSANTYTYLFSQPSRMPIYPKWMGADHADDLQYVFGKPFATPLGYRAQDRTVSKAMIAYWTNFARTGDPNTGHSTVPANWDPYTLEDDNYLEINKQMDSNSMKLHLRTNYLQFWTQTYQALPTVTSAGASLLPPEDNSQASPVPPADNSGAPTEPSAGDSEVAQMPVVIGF

`CC1CCCN(C(=O)Oc2ccc(Oc3ccccc3)cc2)C1` (stereo not drawn) [Example 39, 3-Methyl-1-piperidinecarboxylic acid 4-phenoxyphenyl ester]: in the assay on cholesterol absorption, the inhibition in vivo at 50 mg/kg is 73%. Also, the IC50 in assay [1] came out at 880 nM.

For `CC1CCN(C(=O)Oc2ccc(Oc3ccccc3)cc2F)CC1` [Example 41, 4-Methyl-1-piperidinecarboxylic acid 2-fluoro-4-phenoxyphenyl ester], the inhibition in vivo at 50 mg/kg with cholesterol absorption came to 73%. Besides, the IC50 in assay [1] came out at 30 nM.

Consider `CCC1CCN(C(=O)Oc2ccc(Oc3ccccc3)cc2)CC1` [Example 42, 4-Ethyl-1-piperidinecarboxylic acid 4-phenoxyphenyl ester], for which the inhibition in vivo at 50 mg/kg in the assay on cholesterol absorption is 81%. The IC50 in assay [1] came out at 50 nM.

As to `CCOC(=O)C1CCN(C(=O)Oc2ccc(Oc3ccccc3)cc2)CC1` [Example 43, 1,4-Piperidinedicarboxylic acid 4-ethyl-1-(4phenoxyphenyl) diester], the inhibition in vivo at 50 mg/kg in the assay on cholesterol absorption amounted to 60%. The IC50 in assay [1] was 4500 nM.

Turning to `O=C(Oc1ccc(Oc2ccccc2)cc1)N1CCC(O)CC1` [Example 44, 4-Hydroxy1-piperidinecarboxylic acid 4-phenoxyphenyl ester], the inhibition in vivo at 50 mg/kg in the assay on cholesterol absorption came to 49%. The IC50 in assay [1] is 1900 nM.

Regarding `CCCC1CCN(C(=O)Oc2ccc(Oc3ccccc3)cc2)CC1` [Example 45, 4Propyl-1-piperidinecarboxylic acid 4-phenoxyphenyl ester], the inhibition in vivo at 10 mg/kg in the assay with cholesterol absorption (10 mg/kg) came to 41%. The IC50 in assay [1] was determined as 70 nM.

On to `O=C(O)C1CCN(C(=O)Oc2ccc(Oc3ccccc3)cc2)CC1` [Example 46, 1.4-Piperidinedicarboxylic acid 1-(1-phenoxyphenyl ester)], for which, in the assay on cholesterol absorption, the inhibition in vivo at 100 mg/kg stood at 55%. For the same molecule, in assay [1], the IC50 stood at 44000 nM.

Consider `CC1(C)CCCN(C(=O)Oc2ccc(Oc3ccccc3)cc2)C1` [Example 47, 3,3-Dimethyl-1-piperidinecarboxylic acid 4-phenoxyphenyl ester], for which the inhibition in vivo at 20 mg/kg in the assay with cholesterol absorption was 67%. Moreover, the IC50 in assay [1] was found to be 1600 nM.

As to `CC(=O)OC1CCN(C(=O)Oc2ccc(Oc3ccccc3)cc2)CC1` [Example 48, 4-(Acetyloxy)-1-piperidinecarboxylic acid 4-phenoxyphenyl ester], the inhibition in vivo at 50 mg/kg in the assay on cholesterol absorption is 41%. In addition, the IC50 in assay [1] was 540 nM.

As to `COC(=O)c1cc(Oc2ccccc2)ccc1OC(=O)N1CCC(C)CC1` [Example 49, 4-Methyl-1-piperidinecarboxylic acid 2-(methoxycarbonyl)-4-phenoxyphenyl ester], the inhibition in vivo at 50 mg/kg with cholesterol absorption is 28%. For the same molecule, the IC50 in assay [1] was 340 nM.

As for `CC(C)C1CCN(C(=O)Oc2ccc(Oc3ccccc3)cc2)CC1` [Example 51, 4-(1-Methylethyl)-1-piperidinecarboxylic acid 4-phenoxyphenyl ester], the inhibition in vivo at 20 mg/kg in the assay on cholesterol absorption was 66%. Also, in assay [1], the IC50 came to 250 nM.

Regarding `O=C(Oc1ccc(Oc2ccccc2)cc1)N1CCC2(CCCC2)CC1` [Example 52, 8-Azaspiro[4,5]decan-8-carboxylic acid 4-phenoxyphenyl ester], in the assay on cholesterol absorption, the inhibition in vivo at 50 mg/kg amounted to 78%. The IC50 in assay [1] came to 750 nM.

With `CCCCCCCCCCCCOC(=O)C1CCN(C(=O)Oc2ccc(Oc3ccccc3)cc2)CC1` [Example 53, 1,4-Piperidinedicarboxylic acid 4-dodecyl 1-(4-phenoxyphenyl) diester], in the assay on cholesterol absorption, the inhibition in vivo at 100 mg/kg came out at 44%. Besides, in assay [1], the IC50 was greater than 100000 nM.

Regarding `CC1CCN(C(=O)Oc2ccc(Oc3ccccc3)cc2C#N)CC1` [Example 54, 4-Methyl-1-piperidinecarboxylic acid 2-cyano-4-phenoxyphenyl ester], the inhibition in vivo at 50 mg/kg with cholesterol absorption turned out to be 36%. The IC50 in assay [1] was found to be 440 nM.

Take `CC1CCN(C(=O)Oc2ccc(Oc3ccccc3)cc2C(=O)O)CC1` [Example 55]: the inhibition in vivo at 50 mg/kg with cholesterol absorption was 16%. In addition, in assay [1], the IC50 was 31300 nM.

As to `O=C(Oc1ccc(Oc2ccccc2)cc1)N1CCC(CBr)CC1` [Example 57, 4-(Bromomethyl)-1-piperidinecarboxylic acid, 4-phenoxyphenyl ester], the inhibition in vivo at 50 mg/kg with cholesterol absorption was found to be 87%. In addition, the IC50 in assay [1] was 80 nM.

Take `CCCCCCCCCCCCOC(=O)c1cc(Oc2ccccc2)ccc1OC(=O)N1CCC(C)CC1` [Example 58, 4-Methyl-1-piperidinecarboxylic acid 2-(dodecycloxycarbonyl)-4-phenoxyphenyl ester]: the inhibition in vivo at 50 mg/kg in the assay with cholesterol absorption was 37%. In assay [1], the IC50 amounted to 340 nM.

As for `CCN(CC)CC1CCN(C(=O)Oc2ccc(Oc3ccccc3)cc2)CC1` [Example 60], in the assay on cholesterol absorption, the inhibition in vivo at 50 mg/kg came out at 49%. For the same molecule, the IC50 in assay [1] was greater than 100000 nM.

Turning to `CC[N+](CC)(CC)CC1CCN(C(=O)Oc2ccc(Oc3ccccc3)cc2)CC1` [Example 61, Triethyl 1-[(4-phenoxyphenoxy)carbonyl]-4-piperidinemethanaminium iodide], the inhibition in vivo at 50 mg/kg in the assay on cholesterol absorption came to 33%. Also, in assay [1], the IC50 is greater than 100000 nM.

Regarding `CC1CCCCN1C(=O)Oc1ccc(Oc2ccccc2)cc1` (stereo not drawn) [Example 63, 2-Methyl-1-piperidinecarboxylic acid 4-phenoxyphenyl ester], the inhibition in vivo at 50 mg/kg in the assay on cholesterol absorption stood at 68%. In addition, the IC50 in assay [1] was greater than 100000 nM.

`CCCCCCCC/C=C\CCCCCCCCNC(=O)Oc1ccc(Oc2ccccc2)cc1` [Example 67, (Z)-9-Octadecenylcarbamic acid 4-phenoxyphenyl ester]: the inhibition in vivo at 100 mg/kg in the assay with cholesterol absorption was 49%. The IC50 in assay [1] stood at 626000 nM.
